Results from BindingDB's records for doi:10.1016/j.bmc.2017.05.049 (Peking University, 2017).

Columns and labels:
[1] = Inhibition of PGPH-like activity of 20S proteasome in human HL60 cells using Z-nLPnLDaminoluciferin as substrate pretreated for 2 hrs followed by substrate addition by […] assay
[2] = Inhibition of trypsin-like activity of 20S proteasome in human HL60 cells using Z-LRRaminoluciferin as substrate pretreated for 2 hrs followed by substrate addition by […] assay

SMILES: CC(C)C[C@H](NC(=O)OCc1ccccc1)C(=O)N[C@@H](Cc1ccc2ccccc2c1)C(=O)N1CCC[C@H]1B(O)O
- IC50 [1]: 1250 nM
- IC50 [2]: 1660 nM
